From US11992011B2, “Compounds for controlling plant pathogens” (VIB VZW, priority 2017, dated 2024)

Experiments:
[1] = system: Meloidogyne incognita; assay: M. incognita infection in DIECA-treated tomato (Example 18); assay type: in vivo; conditions: DIECA alone
Experimental: Infection experiments with M. incognita were performed in the same manner as those with M. graminicola, except that plants were harvested 31 days after inoculation instead of 14 days. At this point, the plants were phenotyped by measuring the root length with a ruler and in some experiments by measuring leaf area using the EasyLeafArea software (Easlon and Bloom, 2014) and by determining shoot dry mass after 72 hours of drying in an oven at 70° C. Galls were stained and counted as described above.
To determine whether C4H inhibitors depend on this hormonal pathway, it was tested whether tomato plants treated with the chemical inhibitor of jasmonic acid biosynthesis diethyldithiocarbamate (DIECA) (Farmer et al., 1994) still responded to PA treatment.

[2] = system: J2 juveniles of Meloidogyne graminicola; assay: In vitro nematode toxicity assay, M. graminicola J2 (Example 11); conditions: second experiment, C4H inhibitor 100 μM, Vertimec 0.02 v/v % abamectin, water control 93%
Experimental: J2 juveniles of Meloidogyne graminicola and Heterodera schachtii were isolated from Echinocloa cruss-galli roots and sugar beet roots respectively. Per treatment and species combination, 300 nematodes were isolated and divided over six wells that contained 1.5 ml of either sterilized tap water, a 100 μM C4H inhibitor solution or a 0.02 v/v % solution of the nematicide abamectin (Vertimec®, Syngenta AG). The nematodes were incubated in the dark on a slow-moving rotary shaker (50 rpm) and the number of living nematodes was counted regularly using a binocular microscope.
To rule out definitively that the compounds of the invention operate through direct toxicity to nematodes, an in vitro toxicity assay on J2 juveniles of the nematodes Meloidogyne graminicola and Heterodera schachtii was performed.
First, survival upon exposure to the C4H inhibitor piperonylic acid (PA) was compared to a negative control (tap water) and a positive control, the commercial nematicide Vertimec (0.02% Abamectin). A detailed survival curve is shown in FIG. 12a (M. graminicola) and FIG. 12b (H. schachtii).
In a second experiment, a broader range of C4H inhibitors were assayed in the same manner. The toxicity of piperonylic acid (PA), piperine (PIP), 4-propynyloxybenzoic acid (4PB), and 3-(4-pyridyl)acrylic acid (3PA) to J2 juveniles of Meloidogyne graminicola was compared to a negative control (tap water) and a true nematicide (Vertimec, active ingredient abamectin).

[3] = system: wheat; assay: Phytotoxicity of foliar spray in uninfected wheat (Example 1); assay type: in vivo, Triticum aestivum; conditions: 500 μM foliar spray, 8 plants per treatment; for Root length / Shoot length: mean ± standard deviation; for BBCH stage: median ± interquartile range
Experimental: (§1) For Examples 1, 5 and 10, seeds of the winter wheat cultivar Sahara (Aveve Agrarisch, Landen, Belgium) were used. Seeds were washed in a 10% ethanol solution to remove any residual traces of fungicide and then germinated on wet paper at room temperature for four days; seeds were transferred to SAP tubes and placed in a growth chamber (25° C., 16 hours per day of light). Plants were watered with 8 ml of half-strength Hoagland solution every two days for the first ten days and with 8 ml of full strength Hoagland solution every two days afterwards.
(§2) Unless otherwise mentioned, all chemicals for nematode experiments were applied as a foliar spray consisting of the target compound at a concentration of 300 μM together with 0.1% (v/v) Tween 20 surfactant (Calbiochem) in distilled water. Again unless otherwise mentioned, all treatments for the nematode experiments were carried out three times: one and eight days before pathogen inoculation and seven days after pathogen inoculation. In all cases, plants were sprayed until run-off with an atomizer.
(§3) Short-term phytotoxicity experiments (Example 1) were analyzed using non-parametric methods. For each variable, overall significance was determined using the Kruskal-Wallis test (Kruskal and Wallis, 1952), followed by a posthoc Conover-Iman test (Conover and Iman, 1981) with Hommel multiplicity correction (Hommel, 1988) if the Kruskal-Wallis test was significant. When only two groups were present, the Wilcoxon-Mann-Whitney test was used (Mann and Whitney, 1947).
(§4) To test whether C4H inhibitors induce phytotoxic effects in crops, uninfected tomato, wheat and carrot were treated with piperonylic acid (PA), 4-iodobenzoic acid (4-IBA) and piperic acid (PIA) at a concentration of 500 μM through foliar application. At harvest, leaf area (or shoot length in the case of wheat) and primary root length were recorded. The BBCH developmental stage (Lancashire et al., 1991), a measure of developmental retardation, was used to test for effects on development. Finally, the presence of visible signs of phytotoxicity such as chlorosis, discoloration or necrosis was recorded.

[4] = system: carrot; assay: Phytotoxicity of foliar spray in uninfected carrot (Example 1); assay type: in vivo, Daucus carota; conditions: 500 μM foliar spray, 8 plants per treatment; for Leaf Area: mean ± standard deviation; for BBCH stage: median ± interquartile range
Experimental: Carrot seeds, cv. Nantes 2 (Vreeken's Zaden, Dordrecht, the Netherlands) were germinated on wet paper for seven days at 21° C. After germination, seedlings were transferred to individual pots filled with potting soil and placed in a growth chamber at 21° C.
as §2, §3, §4

[5] = system: Arabidopsis thaliana (ecotype Col-0) seedlings; assay: In vitro Arabidopsis thaliana seedling growth assay (Example 15); assay type: in vivo; conditions: for Agravitropy ratio / Primary root length / Rosette area: 14 days old seedlings; for Agravitropy ratio / Primary root length / Rosette area / Germination rate: mean ± SD
[6] = system: tomato; assay: Phytotoxicity of foliar spray in uninfected tomato (Example 1); assay type: in vivo, Solanum lycopersicum; conditions: 500 μM foliar spray, 8 plants per treatment; for Leaf Area / Root length: mean ± standard deviation; for BBCH stage: median ± interquartile range
Experimental: Tomato seeds, cv. Moneymaker (Vreeken's Zaden, Dordrecht, the Netherlands) were sown on autoclaved potting soil coveed with polyethylene film and placed at 24° C. for eight days. Seedlings were then transferred to individual SAP-filled pots and placed in a growth chamber at 24° C. Plants were watered three times per week with 25 ml of quarter-strength Hoagland solution for the first two weeks and half-strength thereafter.
as §2, §3, §4

[7] = system: Meloidogyne graminicola; assay: Meloidogyne graminicola infection in wheat cv. Sahara (Example 5); assay type: in vivo; conditions: infected wheat, foliar spray
Experimental: as §1, §2
(§5) Infection experiments with M. graminicola were performed by inoculating host plants 14 days after transfer to SAP by introducing the desired amount of J2 juveniles next to the root system using a micro pipette. Rice plants (cv. Nipponbare or Kitaake) were inoculated with 250 J2 juveniles per plant; wheat plants (cv. Sahara) were inoculated with 600 J2 juveniles per plant. Plants were harvested 14 days after inoculation. At this point, the plants were phenotyped by measuring the shoot and root length with a ruler, counting the number of adventitious roots and in some experiments by measuring leaf area using the EasyLeafArea software (Easlon and Bloom, 2014) and by determining shoot dry mass after 72 hours of drying in an oven at 70° C. Root systems were then stained in acid fuchsine as described in (Byrd et al., 1983) and left to destain in glycerol with 1 ml/l fuming HCl added for approximately ten days. The number of galls and nematodes was then counted using a binocular microscope.
In this experiment, the compounds PA, MDCA and 4-IBA were tested as foliar spray in the monocot staple crop wheat (Triticum aestivum, cv. Sahara) against the nematode Meloidogyne graminicola. The bacterial compound LPS (lipopolysaccharide), which is a potent inducer of the plant immune system and a known priming agent (Desaki et al., 2006), was also included as a positive control.

[8] = system: Meloidogyne graminicola; assay: Meloidogyne graminicola infection in rice cv. Kitaake, additional C4H inhibitors (Example 6); assay type: in vivo; conditions: foliar spray, N=8
Experimental: as §2, §5
Four different C4H inhibitors were used: piperonylic acid (PA), piperine (PIP), 4-propynyloxybenzoic acid (4PB) and 3-(4-pyridyl)acrylic acid (3PA).

[9] = system: spring wheat (Triticum aestivum cv. Fielder); assay: Yield and fertility in pathogen-free spring wheat (Example 2); conditions: 300 μM foliar spray three times; vs. control
Experimental: For Example 2, the spring wheat cultivar Fielder was used. Seeds were obtained from plants grown in the greenhouse complex of the VIB (Zwijnaarde, Belgium). Seeds were sown directly in potting soil (four seeds to a pot, thinned to three plants per pot after emergence) and placed in a growth chamber at 21° C. with 16 hours per day of light. These plants were grown until harvest; they were sprayed three times with the compounds of the invention at a concentration of 300 μM using the protocol described in the chemicals section. Spraying took place 14 and 21 days after emergence and a final time at heading.
In all cases model assumptions were verified using diagnostic plots (residuals, QQ-plot, scale-location and residuals-leverage). Outliers were removed only if they were outliers both in the statistical sense and if there was a biological reason for removal (e.g. the plant was stunted or developed a secondary infection).
To determine the effects of C4H inhibition on yield and fertility, spring wheat (Triticum aestivum cv. Fielder) was grown in a pathogen-free growth chamber until maturity and treated with a control or C4H inhibitor-containing foliar spray at regular intervals. At harvest, the number of ears per plant, the seed mass, the size of the seeds and the germination ability of the freshly harvested seeds were measured. Seed size was measured using the stacking density of the seed as a proxy measure; if a given seed mass takes up a greater volume, then the individual seeds must be larger.

[10] = system: C4H enzyme; assay: Yeast heterologous expression assay of C4H inhibition (Example 15); assay type: biochemical
Experimental: Further structural analogs of the C4H inhibitor 4-iodobenzoic acid (IBA) were tested for their ability to inhibit the C4H enzyme in a yeast heterologous expression assay.

## CCN(CC)C(=S)S [DIECA, diethyldithiocarbamate, reference compound]
[1]
  change of number of galls, DIECA-treated tomato plants vs wild type: +26%

## O=C(O)c1ccc(I)cc1 [Formula 4-IBA, 4-iodobenzoic acid]
[2]
  survival at the end of the experiment: 89%
[3]
  Root length: 14.36 ± 2.78 cm
  Shoot length: 31.93 ± 3.38 cm
  BBCH stage: 13 ± 0
[4]
  Leaf Area: 5.05 ± 1.35 cm^2
  BBCH stage: 13 ± 0
[5]; 50 μM
  Agravitropy ratio: 0.78 ± 0.17
  Primary root length: 0.43 ± 0.15 cm
  Rosette area: 0.10 ± 0.06 cm^2
  Germination rate: 0.88 ± 0.34
[5]; 100 μM
  Agravitropy ratio: 0.82 ± 0.11
  Primary root length: 0.28 ± 0.07 cm
  Rosette area: 0.05 ± 0.01 cm^2
  Germination rate: 0.84 ± 0.37
[6]
  Leaf Area: 8.92 ± 1.91 cm^2
  Root length: 7.40 ± 0.79 cm
  BBCH stage: 102.5 ± 1.0
[7]; n = 9
  Number of galls per AR: 2.7 ± 0.8
[7]; per root system, n = 9
  Number of galls: 27.8 ± 7.5
[7]; vs control
  reduction in gall numbers: −27%

## O=C(O)/C=C/c1ccncc1 [Formula 3PA, 3-(4-pyridyl)-acrylic acid]
[2]
  survival at the end of the experiment: 93%
[8]
  reduction in the number of galls compared to the control group: −47%

## O=C(/C=C/C=C/c1ccc2c(c1)OCO2)N1CCCCC1 [piperine, Piperine]
[2]
  survival at the end of the experiment: 91%
[8]
  reduction in the number of galls compared to the control group: −33%
[9]
  Total yield (seed mass): small but statistically significant increase
  germination after fourteen days of freshly harvested seeds: not significantly different
  mean number of ears per plant: the same in all treatments
  seed size (stacking density): no effect

## O=C(O)/C=C/C=C/c1ccc2c(c1)OCO2 [PIA, Piperic acid]
[3]
  Root length: 14.57 ± 1.24 cm
  Shoot length: 31.07 ± 4.82 cm
  BBCH stage: 13 ± 0
[4]
  Leaf Area: 4.78 ± 0.85 cm^2
  BBCH stage: 13 ± 0
[6]
  Leaf Area: 12.21 ± 1.66 cm^2
  Root length: 8.24 ± 1.90 cm
  BBCH stage: 103 ± 1.0

## C#CCOc1ccc(C(=O)O)cc1 [Formula 4PB, 4-propynyloxybenzoic acid]
[10]
  C4H inhibitor activity: significant C4H inhibitor activity
[2]
  survival at the end of the experiment: 91%
[8]
  reduction in the number of galls compared to the control group: −44%

## O=C(O)c1ccc(C(F)(F)F)cc1 [CF3-BA, 4-trifluoromethylbenzoic acid]
[10]
  C4H inhibitor activity: significant C4H inhibitor activity
[5]; 50 μM
  Agravitropy ratio: 0.79 ± 0.15
  Primary root length: 0.42 ± 0.14 cm
  Rosette area: 0.16 ± 0.06 cm^2
  Germination rate: 0.95 ± 0.22
[5]; 100 μM
  Agravitropy ratio: 0.81 ± 0.10
  Primary root length: 0.41 ± 0.14 cm
  Rosette area: 0.15 ± 0.09 cm^2
  Germination rate: 0.84 ± 0.37
[5]; seedlings grown on amended medium
  seedling phenotype compared with IBA: identical phenotype to those grown on medium containing IBA
